No end group written: not given here.

We go through five molecules from patent US20090305994A1, “Compounds Modulating Vegf Receptor and Uses Thereof” (priority 2005, published 2009).

In one test the test system is RB. As to the kind of experiment: RB phosphorylation (western blot). The test is classed as cell-based, bovine. To be noted: 12 and 18 hours; QK 10^-6 M, VEGF165 100 ng/ml, VEGF 15 10^-6 M. How it is done: Effect of QK on cell proliferation. a) DNA synthesis. BAEC were incubated in DMEM with [^3H]-thymidine and QK in absence or in presence of VEGF165 (100 ng/ml). After 24 hours cells were fixed and lysed. Scintillation liquid was added and [^3H]-thymidine incorporation was evaluated. b) Cell proliferation. BAEC were stimulated with the indicated amount of QK in absence or in presence of VEGF165 (100 ng/ml). Cell number was determined at 24 hours after stimulation. c) RB phosphorylation. p-RB was evaluated at 12 and 18 hours after stimulation with QK (10^-6M), VEGF165 (100 ng/ml) and VEGF 15 (10^−6 M).
Cells proliferation assay. Cells were seeded at a density of 10000 per well in six well plates, serum starved overnight and then stimulated with QK (10-12 to 10^−6 M) in absence or in presence of VEGF165. Cell number was determined at 24 hours after stimulation. The p-RB, was evaluated by western blot 12 and 18 hours after stimulation with QK (10^−6 M), VEGF165 and VEGF 15 (10^−6 M).

The subject of another test is WKY rats. As to the kind of experiment: Ischemic hindlimb model, digital angiographies and blood flow determination. The test is classed as in vivo, rat. The following applies: 14 days.
A further test has as its target T1, Flt-1 (Bos taurus, UniProt F1MDD9).
T1 construct: we immunoprecipitated total KDR and Flt-1 from BAEC whole extracts; endogenous in cells; host or cells: BAEC (bovine aorta endothelial cells, SV40-immortalized)
T1 sequence (F1MDD9 1-1251): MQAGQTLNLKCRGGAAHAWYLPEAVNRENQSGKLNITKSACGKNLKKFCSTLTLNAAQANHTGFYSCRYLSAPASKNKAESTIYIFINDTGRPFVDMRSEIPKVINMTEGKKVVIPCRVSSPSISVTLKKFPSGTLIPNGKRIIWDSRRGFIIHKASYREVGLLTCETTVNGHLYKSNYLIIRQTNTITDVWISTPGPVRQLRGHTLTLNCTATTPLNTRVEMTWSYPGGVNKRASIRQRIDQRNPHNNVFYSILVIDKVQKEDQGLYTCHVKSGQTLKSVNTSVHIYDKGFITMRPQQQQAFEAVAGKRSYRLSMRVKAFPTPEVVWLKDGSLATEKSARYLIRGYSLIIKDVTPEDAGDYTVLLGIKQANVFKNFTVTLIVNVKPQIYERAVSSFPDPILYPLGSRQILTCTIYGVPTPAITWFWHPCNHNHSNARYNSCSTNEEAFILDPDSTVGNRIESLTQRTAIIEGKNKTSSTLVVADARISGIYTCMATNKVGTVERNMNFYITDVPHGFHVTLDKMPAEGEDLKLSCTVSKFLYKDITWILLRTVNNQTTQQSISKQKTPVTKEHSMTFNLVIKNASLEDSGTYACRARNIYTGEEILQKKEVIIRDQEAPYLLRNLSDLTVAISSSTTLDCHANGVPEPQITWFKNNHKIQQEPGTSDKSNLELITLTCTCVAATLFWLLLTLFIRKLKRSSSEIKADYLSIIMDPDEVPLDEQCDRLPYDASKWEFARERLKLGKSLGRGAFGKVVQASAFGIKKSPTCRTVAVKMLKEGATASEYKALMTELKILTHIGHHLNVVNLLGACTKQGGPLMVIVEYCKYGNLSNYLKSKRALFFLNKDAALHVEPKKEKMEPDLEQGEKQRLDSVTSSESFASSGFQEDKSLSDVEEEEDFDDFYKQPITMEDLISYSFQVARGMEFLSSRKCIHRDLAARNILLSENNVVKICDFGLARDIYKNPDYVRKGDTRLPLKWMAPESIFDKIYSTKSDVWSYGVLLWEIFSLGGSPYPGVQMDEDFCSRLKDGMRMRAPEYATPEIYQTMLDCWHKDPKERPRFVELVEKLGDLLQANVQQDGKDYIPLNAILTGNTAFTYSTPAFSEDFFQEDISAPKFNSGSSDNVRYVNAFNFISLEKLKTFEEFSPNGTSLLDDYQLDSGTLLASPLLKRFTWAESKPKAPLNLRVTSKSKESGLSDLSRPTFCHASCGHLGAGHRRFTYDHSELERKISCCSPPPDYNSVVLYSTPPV
The test is described as follows: Flt-1 activation (immunoprecipitation, phospho-tyrosine western blot) in BAEC. To be noted: 15 minutes of exposure. The class given is cell-based, bovine. How it is done: (§1) VEGF receptors binding and activation. a) VEGF competitive binding on BAEC. 1 μg of membrane protein was plated with QK and [^125I]-VEGF (500000 cpm, 10^−10 M). b) KDR activation. After stimulation total KDR was immunoprecipitated from a whole-cell protein extracts and phospho-tyrosine was visualized by a specific antibody, anti-rabbit HRP-conjugated secondary antibody and standard chemiluminescence. c) Flt-1 activation. After stimulation total Flt-1 was immunoprecipitated from a whole-cell protein extracts and phospho-tyrosine was visualized by specific antibody, anti-rabbit HRP-conjugated secondary antibody and standard chemiluminescence.
(§2) Western blot. Cells were plated on six-well dishes and serum starved overnight. On the next day, cells were treated with different amount of peptide in absence or in presence of VEGF165 for 15 minutes at 37° C. and then dissolved in RIPA-SDS buffer (50 mM Tris-HCl (pH 7.5), 150 mM NaCl, 1% NP-40, 0.25% deoxycholate, 9.4 mg/50 ml sodium orthovanadate, […]). In some experiments, total KDR and Flt-1 were immunoprecipitated from an equal amount of whole-cell protein extracts using protein A/G agarose beads conjugated with antibodies raised against total KDR or Flt-1 (R&D). Proteins from whole-cell extracts or immunocomplexes were resolved by PAGE and transferred to nitrocellulose. […]
In general terms: Immunoblotting shows a protein as a band on a membrane.

A further test concerns the target T2, KDR (Bos taurus, UniProt A0AAA9SPC9).
T2 construct: we immunoprecipitated total KDR and Flt-1 from BAEC whole extracts; endogenous in cells; host or cells: BAEC (bovine aorta endothelial cells, SV40-immortalized)
The test is described as follows: KDR activation (immunoprecipitation, phospho-tyrosine western blot) in BAEC. The class given is cell-based, bovine. The following applies: 15 minutes of exposure. As to the method: as §1, §2

The test system of test [1] is HUVEC. As to the kind of experiment: Analysis of caspase 3 activity in HUVEC deprived of FBS. The class given is cell-based, human. The following applies: VEGF 20 ng/ml plus peptide 20 ng/ml, 4 h. How it is done:
HUVE cells (1×10^4/cm2) were incubated in medium without FBS, in the absence or presence of VEGF (20 ng/ml) and QK (5 ng/ml), at 37° C. in a 5% CO2 atmosphere. After 4 h, caspase 3 activity was determined. Results are expressed as mean values of triplicates.
HUVE cells (1×10^4/cm2) were incubated in medium without FBS, in the absence or presence of VEGF (20 ng/ml) and the indicated peptides (20 ng/ml), at 37° C. in a 5% CO2 atmosphere. After 4 h, caspase 3 activity was determined. Results are expressed as mean values of triplicates.
(§3) Analysis of caspase 3 activity—Cells (2×104) were lysed in a buffer containing Hepes 50 mM, DTT 1 mM, EDTA 0.1 mM, NP-40 0.1%, CHAPS 0.1% and protein quantitation determined. Protein aliquots (20 μg) were incubated with 20 μM Ac-DEVD-AMC (Pharmingen, San Diego, Calif.) in a buffer containing Hepes 50 mM, DTT 1 mM, EDTA 0.1 mM, NP-40 0.1%, CHAPS 0.1%, at 37° C. for 3 h. Caspase 3 activity was determined in the cytosolic extracts by analysing the release of 7-amino-4-methylcoumarin (AMC) from N-acetyl-DEVD-AMC (Thornberry N A, et al. Nature 1992; 356:768-74); the release of AMC was monitored in a spectrofluorometer with an excitation wavelength of 380 nm and emission wavelength of 440 nm.
as §3, with “356: 768-74);” for “356:768-74);”

In another test the test system is ERK1/2 kinase. The test is described as follows: VEGF-induced activation of ERK kinase in HUVEC (western blot). To be noted: VEGF 20 ng/ml plus MA 100 ng/ml, 30 min. The class given is cell-based, human. How it is done: (§4) (a) HUVE cells (1×10^4/cm2) were incubated whit VEGF (20 ng/ml) in the absence or presence of MA peptide (100 ng/ml), in duplicates, for 30 min. Then cell lysates were obtained and analysed in Western blot with anti-phospho-ERK antibody. b) HUVE cells (1×10^4/cm2) were incubated with VEGF (20 ng/ml) in the absence or presence of MA peptide (100 ng/ml), in triplicates, for 24 h, at 37° C. in a 5% CO2 atmosphere. Then FITC-Annexin V binding was analyzed by flow cytometry.
Western blotting. Cell total protein lysates were prepared in sample buffer (2% sodium-dodecyl-sulphate, 10% glycerol, 2% mercaptoethanol and 60 mM Tris-HCl pH 6.8 in demineralized water) on ice. Lysates (25 μg) were run on 12% SDS-PAGE gels and electrophoretically transferred to nitrocellulose. Nitrocellulose blots were blocked with 5% BSA in Tris Buffer Saline Tween-20 (TBST) buffer [20 mM Tris-HCl (pH 7.4), 500 mM NaCl, and 0.01% Tween 20] and incubated with primary antibody in TBST-5% BSA overnight at 4° C. Immunoreactivity was detected by sequential incubation with horseradish peroxidase-conjugated secondary antibody and enhanced chemiluminescence reagents following standard protocols (Amersham Bioscience, UK).
Inhibition of VEGF-induced activation of ERK kinase by MA peptide. […] We therefore investigated whether MA peptide binding to the cells could block ERK activation by VEGF.

Another test relates to HUVEC cells. The test is described as follows: Binding of fluorescein-conjugated MA peptide to HUVEC cells (flow cytometry). The arrangement: species or system human. How it is done: HUVE cells (1×10^4/cm2) were incubated with 500 nM MA peptide conjugated with fluorescein and competed with increasing amount of VEGF at 30 min at 4° C. in the dark. Then, cell fluorescence was analyzed by flow cytometry.
(§5) Fluorescence—Cells (3×105) were incubated with saturating amounts of FITC-conjugated and the other indicated reagents, 5 min at 4° C. in the dark. After washing with PBS, the cells were resuspended in PBS and analyzed with a FACScan (Becton Dickinson) flow cytometer.
Binding of MA peptide to HUVEC cells. To verify that MA peptide bound to HUVEC cells, we incubated the cells with MA or a scrambled peptide conjugated with fluorescein and analyze the binding by FACS.

The subject of test [2] is HUVEC. The test is described as follows: FITC-Annexin V binding of HUVEC by flow cytometry. The class given is cell-based, human. To be noted: HUVEC 24 h, VEGF 20 ng/ml plus MA peptide 100 ng/ml. As to the method: as §4, §5
Effect of MA peptide on the appearance of annexin V+ cells in cultures with VEGF. Apoptotic cells externalize phosphatidylserine, that is bound by annexin V (Steensma D P, et al., Methods Mol. Med. 2003; 85: 323-32).
In general terms: A flow cytometer gives signals particle by particle.

Test [3] concerns the target VEGF receptors on bovine aorta endothelial cell (BAEC) membranes. As to the kind of experiment: displacement of [125I]-VEGF from BAEC membranes (1 ug membrane protein) by QK at 10^-13 to 10^-8 M, gamma counter.

T2 sequence (A0AAA9SPC9 20-1356): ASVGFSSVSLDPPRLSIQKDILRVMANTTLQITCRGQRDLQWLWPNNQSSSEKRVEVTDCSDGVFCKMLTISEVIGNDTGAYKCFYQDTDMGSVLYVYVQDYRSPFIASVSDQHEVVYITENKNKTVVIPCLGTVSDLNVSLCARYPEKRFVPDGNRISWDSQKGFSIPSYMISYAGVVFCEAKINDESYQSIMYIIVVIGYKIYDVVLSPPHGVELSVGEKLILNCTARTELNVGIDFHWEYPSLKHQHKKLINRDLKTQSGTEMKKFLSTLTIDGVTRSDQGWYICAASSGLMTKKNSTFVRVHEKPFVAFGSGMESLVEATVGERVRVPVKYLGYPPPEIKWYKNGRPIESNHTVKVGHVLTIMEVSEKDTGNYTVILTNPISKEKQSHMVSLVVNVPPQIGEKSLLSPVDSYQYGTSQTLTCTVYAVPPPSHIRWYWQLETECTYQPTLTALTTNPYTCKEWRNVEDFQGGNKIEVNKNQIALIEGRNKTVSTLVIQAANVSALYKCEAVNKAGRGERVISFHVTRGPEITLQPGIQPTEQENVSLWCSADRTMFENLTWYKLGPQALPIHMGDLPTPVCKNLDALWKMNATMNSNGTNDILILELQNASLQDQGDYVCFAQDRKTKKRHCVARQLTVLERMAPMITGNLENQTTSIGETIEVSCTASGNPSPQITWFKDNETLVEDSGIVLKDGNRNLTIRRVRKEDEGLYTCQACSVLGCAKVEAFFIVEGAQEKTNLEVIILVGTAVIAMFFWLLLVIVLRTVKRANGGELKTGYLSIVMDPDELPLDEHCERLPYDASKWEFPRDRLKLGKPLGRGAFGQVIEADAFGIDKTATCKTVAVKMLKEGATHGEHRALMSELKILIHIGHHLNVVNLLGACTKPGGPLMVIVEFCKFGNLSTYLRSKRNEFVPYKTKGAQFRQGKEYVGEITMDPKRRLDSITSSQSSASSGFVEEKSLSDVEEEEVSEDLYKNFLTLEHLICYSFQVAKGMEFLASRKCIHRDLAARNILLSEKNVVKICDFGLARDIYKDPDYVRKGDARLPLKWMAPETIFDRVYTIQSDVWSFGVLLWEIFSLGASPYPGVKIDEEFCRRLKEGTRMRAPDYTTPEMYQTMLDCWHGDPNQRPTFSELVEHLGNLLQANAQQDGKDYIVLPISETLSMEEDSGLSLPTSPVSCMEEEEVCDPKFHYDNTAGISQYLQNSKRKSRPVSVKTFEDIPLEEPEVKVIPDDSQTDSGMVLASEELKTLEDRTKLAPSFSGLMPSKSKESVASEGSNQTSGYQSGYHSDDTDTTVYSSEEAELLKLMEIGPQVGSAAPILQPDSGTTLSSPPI

Regarding “VEGF165: Vascular Endothelial Growth Factor, most abundant isoform, 45 KDa glycoprotein (Alexis), positive control in Example 1”, the “phosphorylation of the cyclin RB” value in the test with RB is “enhanced phosphorylation of the cyclin RB”. Also, the “BEADS Ischemic to non ischemic” value in the test on WKY rats (dyed beads dilution, muscle ratio, infusion 10^-7 M) was 0.97 ± 0.12. Also, in the test with WKY rats (ischemic hindlimb, chronic intrafemoral artery infusion 10^-7 M), the “ANGIOGRAPHY Number of TFC” value came to 18 ± 2. In addition, in the test with Flt-1, the Flt-1 phosphorylation result was “increases Flt-1 phosphorylation”. In addition, in the test with KDR, the phospho-KDR levels entry is listed as “caused the reduction in the levels of phospho-KDR at the membrane”.

Turning to “KLTWMELYQLKYKGI (KLTWMELYQLKYKGI-NH2) [MK]”, the “effect on VEGF anti-apoptotic activity (caspase 3)” value with HUVEC [1] is “partially inhibited the effect of the growth factor”.

For the molecule “KLTWMELYQLAYKGI (KLTWMELYQLAYKGI-NH2) [MA]”, the “levels of phosphorylated ERK1/2 kinase with VEGF in the presence of peptide” value in the test on ERK1/2 kinase was “highly reduced”. For the same molecule, the “binding to HUVEC cells” value in the test on HUVEC cells (fluorescein-conjugated peptide, FACS) is listed as “specifically bound to the cells in a dose-dependent manner”. Further, the “annexin V+ cells” value in the test with HUVEC [2] is more than 22%. In the test on HUVEC [1], the “effect on VEGF anti-apoptotic activity (caspase 3)” value is recorded as “abolished”.

B1: human recombinant VEGF: Human recombinant VEGF obtained from R&D, used in Example 2 on HUVEC (protein)
chain: APMAEGGGQNHHEVVKFMDVYQRSYCHPIETLVDIFQEYPDEIEYIFKPSCVPLMRCGGCCNDEGLECVPTEESNITMQIMRIKPHQGQHIGEMSFLQHNKCECRPKKDRARQENPCGPCSERRKHLFVQDPQTCKCSCKNTDSRCKARQLELNERTCRCDKPRR
As for B1, the “competition with fluorescein-conjugated MA peptide on HUVEC” value in the test on HUVEC cells (500 nM MA peptide, increasing amount of VEGF, 4° C.) is on record as “appeared to compete with MA peptide”.

One may read the Kd as a measure of binding affinity in units of concentration. A higher Kd goes with lower affinity. Ac-KLTWQELYQLKYKGI-NH2 [QK peptide (SEQ ID No.8)]: the Kd in [3] was 316 pM.
